Data as given in the supplement of paper PMC5770543.
± gives the standard deviation.

Tests used:
[1] = system: Toxoplasma gondii RH tachyzoites; assay: % growth inhibition vs DMSO (48 h luciferase); higher = more inhibition; conditions: 10 µM
[2] = system: Plasmodium falciparum 3D7; assay: % inhibition of schizont-to-ring transition vs DMSO; higher = more inhibition
Outline: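 Schizont-to-ring transition inhibition is the formation of new rings relative to vehicle controls. Tightly synchronised P. falciparum schizonts at about 40–42 hours post-invasion (1% parasitemia, 2.5% hematocrit, AlbuMAX-supplemented RPMI) were treated with compound at 1, 3 or 10 µM, alongside vehicle and positive controls. After glutaraldehyde fixation, Triton permeabilisation and Hoechst 33342 staining, at least 100,000 events were counted by flow cytometry, and values are the mean of three experiments.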

[3] = system: Toxoplasma gondii RH tachyzoites; assay: plaque count per well; higher = less inhibition; extreme values may be limits of the assay; conditions: 10 µM; 8-10 days
Method: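 T. gondii RH tachyzoites expressing firefly luciferase were grown in HFF monolayers for 48 h with compound. % growth inhibition at 10 µM and EC50 (2-fold dilutions from 10 µM) were read by luminescence relative to 1% DMSO; EC50 listed as 10 (not determined, <80% inhibition) is left out. Plaque assays: 50 tachyzoites per well with 10 µM compound for 8-10 days, giving plaque count and area by crystal violet/ImageJ. Egress: median time to egress after 1 µM A23187 ionophore following 24 h of 10 µM compound (DMSO ~1.8 min; >10 = no egress within 10 min).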

[4] = system: Plasmodium falciparum 3D7; assay: EC50 growth inhibition (60 h, SYBR Green); conditions: stage: ring-stage start
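Throughout, for % growth inhibition vs DMSO (48 h luciferase): tested in triplicate wells of 96-well plates on confluent HFF monolayers, with 1% DMSO wells as negative control in four replicates.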

Compound | % growth inhibition [1] [%] | % inhibition of schizont-to-ring transition ([2]; 1 µM) [%] | % inhibition of schizont-to-ring transition ([2]; 3 µM) [%] | % inhibition of schizont-to-ring transition ([2]; 10 µM) [%] | plaque count per well [3] | EC50 growth inhibition [4] [nM]
Cc1ccc(C(=O)c2oc3ccc4c(C)cc(=O)oc4c3c2C)cc1 | < 0 | 6.95 | 10.6 | 20.4 | 24 | –
O=C(NC1CCN(Cc2ccccc2)CC1)c1cc2nc(-c3ccc(Cl)s3)cc(C(F)(F)F)n2n1 | < 0 | 13.4 | 13.8 | 27.3 | 22 | –
CN(C)c1ccc(N=Cc2ccc(N3CCOCC3)cc2)cc1 | < 0 | 17.3 | 20 | 24 | 22 | –
Cc1ccc(N2C3c4ccccc4N(S(=O)(=O)c4ccc(C)cc4)C2c2ccccc2N3S(=O)(=O)c2ccc(C)cc2)cc1 | 19.1 ± 3 | < 0 | 5.25 | 18.3 | 0 | –
CCN(CC)S(=O)(=O)c1ccc(-c2csc(Nc3ccc(C)c(C)c3)n2)cc1 | 71.8 ± 4.9 | 5.05 | 6.93 | 26.5 | 26 | –
COc1ccc(C)c2sc(N(Cc3cccnc3)C(=O)c3ccc(C#N)cc3)nc12 | < 0 | 21.7 | 24.1 | 58.5 | 23 | –
Nc1ccn([C@@H]2O[C@H](CO)[C@@H](O)[C@H]2O)c(=O)n1 | < 0 | 35.8 | 40.5 | 42.6 | 29 | –
COc1cc(C(=O)Nc2nc3c(cc4c5c(cccc53)CC4)s2)cc(OC)c1OC | 4.43 ± 6.7 | 3.9 | 8.08 | 22.5 | 38 | –
O=C1c2ccccc2-c2nnc(-c3ccc(Br)cc3)cc21 | < 0 | 5.35 | 17.7 | 32.6 | 24 | –
CCCCCCc1cc2cc(-c3nc4ccccc4[nH]3)c(=Nc3ccccc3C)oc2cc1O | < 0 | 9.35 | 11.5 | 23.5 | 3 | –
CCOC(=O)C1=C(C)N=c2sc(=Cc3ccccc3O)c(=O)n2C1c1ccc(OC)c2ccccc12 (stereo not given) | 4.31 ± 0.81 | 13.3 | 53.1 | 60.5 | 18 | –
O=C(Nc1ccsc1C(=O)NC1CCCCC1)c1ccc(F)cc1 | < 0 | 4.95 | 8.54 | 14.8 | 20 | –
COc1ccc(CCNC(=O)c2cc(S(=O)(=O)N3CC(C)CC(C)C3)ccc2Sc2ccc(F)cc2)cc1OC (stereo not given) | 11.7 ± 10 | 11.3 | 12.5 | 22.9 | 28 | –
COc1ccc(C2N(C)c3ccccc3N2C)cc1 | 15.2 ± 13 | < 0 | < 0 | 11.8 | 28 | –
CC1CCN(Cc2c(O)ccc3cc(-c4nc5ccccc5s4)c(=O)oc23)CC1 | 18.7 ± 17 | 6.51 | 20.3 | 38.2 | 0 | –
CCOc1ccc(CCNC(=O)c2cccs2)cc1OCC | 72 ± 8.3 | 10.1 | 47 | 68.3 | – | 691
CCN1CCN(c2cc(C)c3cc(NC(=O)c4ccc(OC)c(OC)c4)ccc3n2)CC1 | 56.5 ± 4.2 | 21.3 | 45.6 | 63.3 | – | 814

Compound | % growth inhibition [1] [%] | % inhibition of schizont-to-ring transition ([2]; 1 µM) [%] | % inhibition of schizont-to-ring transition ([2]; 3 µM) [%] | % inhibition of schizont-to-ring transition ([2]; 10 µM) [%] | plaque count per well [3] | EC50 growth inhibition [4] [nM]
CC1CC(C)CN(C(=O)c2ccc(Cl)cc2Cl)C1 (stereo not given) | 31.6 ± 5 | < 0 | < 0 | 13.8 | – | 1020
CC(=O)c1ccc(NC(=O)CSc2nc(-c3ccccc3Cl)ns2)cc1 | 78.8 ± 6.6 | 34 | 71.8 | 76.5 | – | 412
COc1ccc(C2C(C(=O)Nc3cccc(OC)c3)c3ccccc3C(=O)N2C2CCCCC2)cc1 (stereo not given) | 13.5 ± 15 | 12.8 | 71.3 | 76.4 | 0 | –
COc1cc(SC)ccc1C(=O)N1CCCC(C)C1 (stereo not given) | 33.1 ± 4.9 | 0.295 | < 0 | 12.1 | – | 3240
CCOc1ccccc1NC(=O)CN1CCN(C(=O)c2ccco2)CC1 | < 0 | 43.4 | 49.8 | 60 | 35 | –
COc1ccc(/C=C2/SC(=Nc3ccccc3)NC2=O)cc1 | 22.4 ± 12 | 10.4 | 23 | 53 | – | 9090
O=C(Nc1ccccc1O)c1ccc(-c2ccc(Cl)cc2Cl)o1 | 23.8 ± 5.9 | 28.6 | 26.9 | 48 | – | 1670
CCCCCCOC(=O)C1=C(C)NC(=O)NC1c1ccccc1F (stereo not given) | < 0 | 32.7 | 32.8 | 40.9 | 31 | –
CC(C)CNC(=O)c1c(N)n(CCc2ccccc2F)c2nc3ccccc3nc12 | < 0 | < 0 | < 0 | 15 | 28 | –
COc1ccc(CNC(=O)c2cc3c(=O)n4ccccc4nc3n(CCc3ccccc3)c2=N)cc1 | 56.9 ± 14 | 9.38 | 17.6 | 47 | – | 2650
O=C(c1ccccc1F)N(Cc1ccc(Cl)cc1)c1ccccn1 | 82.2 ± 3.3 | 2.8 | 7.52 | 13.9 | – | 5700
CC(C)(C)c1ccc(C(=O)Nc2nc3ccccc3s2)cc1 | 12.1 ± 13 | 44.3 | 45.2 | 54.4 | 33 | –
CCOc1c(Cl)cc(CNCC(O)c2ccccc2)cc1OC (stereo not given) | 21.7 ± 8.2 | 11.2 | 15.1 | 50.5 | – | 956
Cc1[nH]c(-c2ccc(F)cc2)cc1C(=O)NC1CCN(Cc2ccccc2)CC1 | 44.1 ± 26 | 25.3 | 47 | 64.1 | – | 580
CCOc1cccc2sc(N(Cc3cccnc3)C(=O)C3CCCCC3)nc12 | 29.9 ± 10 | 35.3 | 38.9 | 56.6 | – | 4280
c1ccc2cc3c(Nc4ccc(N5CCOCC5)cc4)ccnc3cc2c1 | 60.2 ± 14 | 36.9 | 52.5 | 60.8 | – | 2510
CCOC(=O)c1cnc2ccc(CC)cc2c1O | 78.7 ± 3.3 | 49.9 | 61.3 | 62.8 | – | 482
